The values below come from patent publication US8895579B2, “Heterotricyclic AMPA receptor antagonists for treatment of epilepsy, pain, and other neurological disorders and diseases” (Northwestern University, priority 2010, dated 2014).

Entries after “also recorded” stand apart in the source; their conditions may differ.

Common to all, as to format: cell-based
Assay [1] has as its target T1, kainate receptor EPSCs, CA3 pyramidal neurons (Mus musculus, UniProt P39087+Q61626+Q8BMF5).
T1 construct: whole-cell voltage clamp recording from mouse acute brain slices; from tissue; host or cells: acute hippocampal slices, P15-21 C57Bl/6 mice, CA3 pyramidal neurons
The assay can be described thus: Kainate receptor EPSCs at mossy fiber-CA3 synapses, acute hippocampal slices. To be noted: 20 μM. As to the method:
For recordings from acute hippocampal slices, brains from P15-21 C57Bl/6 mice were sliced transversely (350 μm thickness) in a sucrose slicing solution containing (in mM) 85 NACl, 2.5 KCl, 1.25 NaH2PO4, 25 NaHCO3, 25 glucose, 75 sucrose, 0.5 CaCl2, 4 MgCl2, 0.5 Na ascorbate, 10 μM DL-APV and 100 μM kynurenic acid (pH 7.3). After slicing, the solution was exchanged with an incubation solution containing (in mM) 125 NaCl, 2.4 KCl, 1.2 NaH2PO4, 25 NaHCO3, 25 glucose: 1 CaCl2, 2 MgCl2, 0.5 Na ascorbate, 10 μM DL-APV and 100 μM kynurenic acid (pH 7.3) that was bubbled continuously with CO2-balanced O2 (carbogen). […] Recordings in voltage clamp mode used the CsF/CsCl internal solution and carbogenated external recording solution containing (in mM) 120 NaCl, 2.4 KCl, 2 MgCl2, 1 CaCl2, 25 NaHCO3, 1.2 NaH2PO4, 25 glucose, 10 μM bicuculline methiodide, 50 μM PTX and 50 μM D-APV (pH 7.3). […] NMDA EPSCs were validated by addition of D-APV (50 μM) at the end of each recording. […] IKM compounds were applied for 10 minutes and changes in the peak amplitudes of excitatory post-synaptic currents (EPSCs) and paired-pulse ratios were analyzed during the last two minutes of drug application. EPSC charge transfer, AP frequency, paired-pulse ratio and EPSC peak amplitude were analyzed with Mini-Analysis v6.03 (Synaptosoft, Decatur, Ga.) and Clampfit v10.0 (MDS, Sunnyvale, Calif.) software.

In assay [2] the target is T2, heteromeric GluA1/GluA2 AMPA receptor (Rattus norvegicus, UniProt P19490+P19491).
T2 construct: expressed in transfected cells; host or cells: HEK293-T/17 (CRL-11268)
T2 sequence (P19490 19-907 isoform P19490-2 limits assumed): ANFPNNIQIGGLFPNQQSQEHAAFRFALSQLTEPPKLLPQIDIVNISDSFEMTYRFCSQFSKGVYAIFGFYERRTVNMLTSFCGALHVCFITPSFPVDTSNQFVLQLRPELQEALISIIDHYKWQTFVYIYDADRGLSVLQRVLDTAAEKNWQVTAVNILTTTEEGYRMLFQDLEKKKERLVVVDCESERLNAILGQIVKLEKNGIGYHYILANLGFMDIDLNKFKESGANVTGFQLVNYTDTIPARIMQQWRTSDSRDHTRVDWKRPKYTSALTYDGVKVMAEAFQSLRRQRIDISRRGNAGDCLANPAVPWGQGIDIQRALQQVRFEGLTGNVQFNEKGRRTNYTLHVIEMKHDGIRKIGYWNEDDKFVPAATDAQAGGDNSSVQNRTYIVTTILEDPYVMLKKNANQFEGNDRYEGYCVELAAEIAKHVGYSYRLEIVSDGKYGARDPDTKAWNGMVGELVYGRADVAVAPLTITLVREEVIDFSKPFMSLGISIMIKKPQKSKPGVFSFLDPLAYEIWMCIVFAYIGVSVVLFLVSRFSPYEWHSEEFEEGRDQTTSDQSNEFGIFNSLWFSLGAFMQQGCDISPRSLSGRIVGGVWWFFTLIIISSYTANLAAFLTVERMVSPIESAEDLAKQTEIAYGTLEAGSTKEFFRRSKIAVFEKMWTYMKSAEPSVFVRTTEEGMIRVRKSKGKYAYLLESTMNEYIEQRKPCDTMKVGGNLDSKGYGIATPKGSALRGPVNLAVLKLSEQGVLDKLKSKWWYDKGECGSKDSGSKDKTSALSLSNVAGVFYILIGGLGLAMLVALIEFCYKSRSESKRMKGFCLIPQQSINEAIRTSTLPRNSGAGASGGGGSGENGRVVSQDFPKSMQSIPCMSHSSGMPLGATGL
T2 sequence (P19491 22-883 isoform P19491-2 limits assumed): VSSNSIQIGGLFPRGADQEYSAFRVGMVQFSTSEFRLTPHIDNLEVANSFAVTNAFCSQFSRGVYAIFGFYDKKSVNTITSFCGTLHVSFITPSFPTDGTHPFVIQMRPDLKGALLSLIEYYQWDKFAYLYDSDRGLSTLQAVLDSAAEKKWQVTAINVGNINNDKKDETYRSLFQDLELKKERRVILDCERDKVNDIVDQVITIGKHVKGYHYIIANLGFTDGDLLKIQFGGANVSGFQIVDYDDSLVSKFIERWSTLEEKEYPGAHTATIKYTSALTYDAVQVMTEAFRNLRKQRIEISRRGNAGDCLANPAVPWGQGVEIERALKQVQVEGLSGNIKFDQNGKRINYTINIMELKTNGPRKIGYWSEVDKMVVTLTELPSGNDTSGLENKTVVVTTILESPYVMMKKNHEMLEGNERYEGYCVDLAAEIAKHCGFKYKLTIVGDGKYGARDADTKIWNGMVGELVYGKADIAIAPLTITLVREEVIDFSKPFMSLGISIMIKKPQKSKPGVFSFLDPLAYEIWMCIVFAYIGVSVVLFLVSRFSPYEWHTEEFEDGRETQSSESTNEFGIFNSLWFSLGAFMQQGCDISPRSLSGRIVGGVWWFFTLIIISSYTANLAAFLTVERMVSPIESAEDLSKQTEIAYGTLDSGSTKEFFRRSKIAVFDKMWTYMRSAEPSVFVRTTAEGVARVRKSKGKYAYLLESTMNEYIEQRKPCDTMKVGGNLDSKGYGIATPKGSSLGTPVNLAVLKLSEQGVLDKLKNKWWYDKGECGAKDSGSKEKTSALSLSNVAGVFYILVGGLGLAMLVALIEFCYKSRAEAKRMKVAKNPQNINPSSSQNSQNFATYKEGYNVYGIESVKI
The assay can be described thus: Whole-cell patch clamp of recombinant GluA1/GluA2 receptors in HEK293-T/17 cells. How it is done: (§1) Cell Culture and Transfection. Human embryonic kidney cells expressing T-antigen, clone 17 (HEK293-T/17) (CRL-11268) were cultured at 37° C. with 5% CO2 in DMEM, including 100 μg/mL penicillin, 100 μg/mL streptomycin, and 10% heat-inactivated fetal bovine serum. Cells were split twice per week. For transfection, HEK293-T/17 cells were plated at 3×10^4 cells/cm^2 for pharmacology experiments and 5×10^3 cells/cm^2 for physiology experiments in fresh medium 24 h prior to transfection. Cells were transfected with AMPA or KA receptor plasmid cDNAs using Mirus Trans-IT transfection reagent (Minus Bio Corporation, Madison, Wis.) at a ratio of 1 μg cDNA: 3 μL Trans-1T reagent and maintained in transfection medium overnight followed by a media change the next day. Transfected cells were maintained in this medium until the experiment was conducted (48-72 h total post transfection).
Electrophysiology. For analysis of recombinant receptors, HEK293-T/17 cells were co-transfected with 0.2 μg of iGluR cDNA and 0.05 μg of eGFP. For heterologous GluA1/GluA2 receptors, the GluA1:GluA2 cDNA ratio was 1:6. Two to three days post-transfection, eGFP-expressing cells were lifted from the cover slip and voltage clamped in whole cell mode. The internal solution contained (in mM) 30 CsF, 110 CsCl, 10 HEPES, 4 NaCl, 5 EGTA and 0.5 CaCl2 (pH 7.3), while the extracellular solution contained (in mM) 140 NaCl, 10 glucose, 10 Cs-HEPES, 3 KCl, 2 CaCl2 and 1 MgCl2 (pH 7.3). Borosilicate patch electrodes were pulled and fire polished to 2-3 MO resistance. Lifted cells were maintained in a laminar stream of extracellular solution from a triple-barreled flow pipe, which was rapidly translated using a piezoceramic bimorph for fast application of glutamate or kainate alone or in combination with various antagonists (the 10-90% rise time of glutamate-evoked currents was ˜1 ms). IKM compounds were applied for three minutes with analysis performed on the final one minute of drug application.
Statistical analysis. At least three separate experiments were performed for each assay. […]
A general note: In patch-clamp work, channel activity is measured electrically.

Assay [3] deals with T3, homomeric GluA3 AMPA receptor (Rattus norvegicus, UniProt P19492).
T3 construct: expressed in transfected cells; host or cells: HEK293-T/17 (CRL-11268)
As to the kind of experiment: Whole-cell patch clamp of recombinant GluA3 receptors in HEK293-T/17 cells. To be noted: 30 μM; 10 mM glutamate. How it is done:
as §1
Electrophysiology. For analysis of recombinant receptors, HEK293-T/17 cells were co-transfected with 0.2 μg of iGluR cDNA and 0.05 μg of eGFP. For heterologous GluA1/GluA2 receptors, the GluA1:GluA2 cDNA ratio was 1:6. Two to three days post-transfection, eGFP-expressing cells were lifted from the cover slip and voltage clamped in whole cell mode. […]

T1 sequence (P39087 32-908): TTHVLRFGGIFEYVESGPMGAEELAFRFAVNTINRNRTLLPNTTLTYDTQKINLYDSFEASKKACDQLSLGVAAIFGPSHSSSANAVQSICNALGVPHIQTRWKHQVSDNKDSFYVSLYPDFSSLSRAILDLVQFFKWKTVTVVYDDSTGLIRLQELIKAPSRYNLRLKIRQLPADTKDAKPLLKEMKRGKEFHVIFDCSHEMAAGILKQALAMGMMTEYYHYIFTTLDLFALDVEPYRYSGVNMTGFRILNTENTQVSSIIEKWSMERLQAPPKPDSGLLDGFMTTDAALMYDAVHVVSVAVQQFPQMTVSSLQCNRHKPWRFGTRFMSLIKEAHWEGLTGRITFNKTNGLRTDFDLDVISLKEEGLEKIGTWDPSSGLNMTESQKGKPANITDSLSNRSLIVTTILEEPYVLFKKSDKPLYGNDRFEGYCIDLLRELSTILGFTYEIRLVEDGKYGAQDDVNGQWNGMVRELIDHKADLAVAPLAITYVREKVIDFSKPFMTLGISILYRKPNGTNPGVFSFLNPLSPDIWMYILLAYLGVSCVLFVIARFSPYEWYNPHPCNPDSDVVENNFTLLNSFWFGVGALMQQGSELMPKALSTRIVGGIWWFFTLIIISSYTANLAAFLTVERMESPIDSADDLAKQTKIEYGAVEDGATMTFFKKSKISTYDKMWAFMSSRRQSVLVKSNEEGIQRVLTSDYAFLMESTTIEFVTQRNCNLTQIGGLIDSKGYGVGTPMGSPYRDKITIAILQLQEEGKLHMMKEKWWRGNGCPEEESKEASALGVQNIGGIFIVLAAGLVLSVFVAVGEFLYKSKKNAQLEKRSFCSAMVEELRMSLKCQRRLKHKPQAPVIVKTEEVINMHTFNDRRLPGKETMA
T1 sequence (Q8BMF5 21-956): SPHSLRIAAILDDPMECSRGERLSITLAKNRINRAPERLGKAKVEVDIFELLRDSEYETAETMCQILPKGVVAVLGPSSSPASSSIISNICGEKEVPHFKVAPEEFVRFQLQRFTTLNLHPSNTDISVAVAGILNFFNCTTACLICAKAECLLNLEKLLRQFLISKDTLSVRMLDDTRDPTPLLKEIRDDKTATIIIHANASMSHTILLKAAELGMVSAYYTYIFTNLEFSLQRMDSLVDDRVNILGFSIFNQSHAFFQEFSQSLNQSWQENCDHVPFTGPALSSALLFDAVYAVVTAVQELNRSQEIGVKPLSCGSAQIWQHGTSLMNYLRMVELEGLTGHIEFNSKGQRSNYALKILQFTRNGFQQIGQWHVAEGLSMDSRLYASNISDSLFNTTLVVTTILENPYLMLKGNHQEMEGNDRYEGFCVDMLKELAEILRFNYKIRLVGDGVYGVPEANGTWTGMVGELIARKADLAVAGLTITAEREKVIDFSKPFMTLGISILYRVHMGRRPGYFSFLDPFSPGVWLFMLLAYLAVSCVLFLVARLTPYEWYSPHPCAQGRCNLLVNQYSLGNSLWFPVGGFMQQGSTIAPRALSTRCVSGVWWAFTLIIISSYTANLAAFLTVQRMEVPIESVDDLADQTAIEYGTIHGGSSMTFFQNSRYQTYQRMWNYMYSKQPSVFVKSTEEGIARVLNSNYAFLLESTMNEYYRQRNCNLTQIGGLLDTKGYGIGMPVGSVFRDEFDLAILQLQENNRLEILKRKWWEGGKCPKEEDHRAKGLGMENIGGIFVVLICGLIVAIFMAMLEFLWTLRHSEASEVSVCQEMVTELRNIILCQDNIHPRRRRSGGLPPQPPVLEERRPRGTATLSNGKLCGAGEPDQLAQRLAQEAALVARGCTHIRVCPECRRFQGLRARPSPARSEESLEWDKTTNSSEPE
T1 sequence (Q61626 15-979): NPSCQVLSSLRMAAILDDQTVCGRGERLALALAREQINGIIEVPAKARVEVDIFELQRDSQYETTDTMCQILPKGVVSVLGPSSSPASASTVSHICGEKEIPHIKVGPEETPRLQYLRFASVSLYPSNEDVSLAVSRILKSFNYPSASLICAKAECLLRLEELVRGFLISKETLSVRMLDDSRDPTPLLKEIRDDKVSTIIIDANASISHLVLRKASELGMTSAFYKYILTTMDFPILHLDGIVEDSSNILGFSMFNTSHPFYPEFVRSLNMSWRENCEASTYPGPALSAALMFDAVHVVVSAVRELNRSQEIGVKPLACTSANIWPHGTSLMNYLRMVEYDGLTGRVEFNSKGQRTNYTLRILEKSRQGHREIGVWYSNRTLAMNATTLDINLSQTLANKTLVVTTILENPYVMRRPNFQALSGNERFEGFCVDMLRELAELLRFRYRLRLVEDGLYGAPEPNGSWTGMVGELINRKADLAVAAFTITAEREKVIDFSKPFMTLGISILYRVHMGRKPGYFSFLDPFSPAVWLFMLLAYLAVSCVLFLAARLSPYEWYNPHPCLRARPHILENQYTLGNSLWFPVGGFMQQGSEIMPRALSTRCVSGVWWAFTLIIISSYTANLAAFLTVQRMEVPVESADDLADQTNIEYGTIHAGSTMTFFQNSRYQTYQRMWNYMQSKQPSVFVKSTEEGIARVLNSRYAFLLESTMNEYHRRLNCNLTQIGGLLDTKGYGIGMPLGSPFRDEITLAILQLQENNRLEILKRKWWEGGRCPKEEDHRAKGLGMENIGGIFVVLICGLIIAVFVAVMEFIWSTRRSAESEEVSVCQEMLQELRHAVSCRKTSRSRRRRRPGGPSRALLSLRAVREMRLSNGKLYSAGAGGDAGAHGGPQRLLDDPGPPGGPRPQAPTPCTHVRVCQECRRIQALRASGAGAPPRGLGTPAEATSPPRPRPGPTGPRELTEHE

The IC50 is the midpoint of a concentration-inhibition curve. For `O=C(O)C[C@@]12O[C@H]3C=CCN[C@H]3C1CN[C@H]2C(=O)O` (stereo partly drawn) [IKM-159], the “effect on kainate receptor EPSC peak amplitude” value in assay [1] is recorded as “did not alter the mean amplitude; also recorded: did not alter the typical run-down in amplitude”. Further, the IC50 in assay [2] came out at 26 ± 2 µM. In assay [2] (30 μM, 10 mM glutamate), the “GluA1/GluA2 peak amplitude as percent of basal peak amplitude” value turned out to be 56±5% and the “reduction in GluA1/GluA2 peak current amplitude” value came to 44±5%. In addition, in assay [3], the “GluA3 peak amplitude as percent of basal peak amplitude” value stood at 83±2% and the “reduction in GluA3 peak current amplitude” value is listed as 17±2%.
